We go through three compounds from PMC9610999, “Itraconazole-Induced Increases in Gilteritinib Exposure Are Mediated by CYP3A and OATP1B” (Molecules, 2022).

pIC50: −log10 of the molar value.

Data set [1] has as its target T1, human OATP1B1 (SLCO1B1) (Homo sapiens, UniProt Q9Y6L6).
T1 construct: expressed in transfected cells; host or cells: HEK293
T1 sequence (Q9Y6L6 1-691): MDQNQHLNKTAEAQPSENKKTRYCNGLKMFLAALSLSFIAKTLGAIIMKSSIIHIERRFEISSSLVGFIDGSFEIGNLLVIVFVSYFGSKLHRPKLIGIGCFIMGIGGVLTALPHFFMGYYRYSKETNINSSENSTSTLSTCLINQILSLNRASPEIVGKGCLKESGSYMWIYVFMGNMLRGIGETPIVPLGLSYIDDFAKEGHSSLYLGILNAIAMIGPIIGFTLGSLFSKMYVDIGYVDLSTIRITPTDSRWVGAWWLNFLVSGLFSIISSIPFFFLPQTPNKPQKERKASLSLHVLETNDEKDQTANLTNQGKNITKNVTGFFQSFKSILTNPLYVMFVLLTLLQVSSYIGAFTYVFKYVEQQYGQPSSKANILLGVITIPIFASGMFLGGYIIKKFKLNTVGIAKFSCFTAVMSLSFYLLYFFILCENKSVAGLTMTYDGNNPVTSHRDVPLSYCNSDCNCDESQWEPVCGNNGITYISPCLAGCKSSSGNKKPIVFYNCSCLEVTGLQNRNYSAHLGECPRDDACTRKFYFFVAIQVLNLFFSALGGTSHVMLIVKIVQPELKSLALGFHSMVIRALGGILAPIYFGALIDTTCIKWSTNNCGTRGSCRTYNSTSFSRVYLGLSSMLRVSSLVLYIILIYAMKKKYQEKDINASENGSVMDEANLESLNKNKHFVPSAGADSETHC
Put plainly: Transport inhibition assay: EβG uptake in OATP1B1 overexpressing HEK293 cells. To be noted: OATP1B1 overexpressing HEK293 cells vs vector control; radiolabeled EβG; 15 min pre-incubation; read-out: IC50, inhibition of OATP1B1-mediated cellular accumulation of EβG. In kind it is cell-based. How it is done: Human embryonic kidney (HEK293) cells stably transfected with human OATP1B1 (SLCO1B1) cDNA, or an empty control vector were established and cultured as previously described. Cells were maintained in DMEM supplemented with 10% FBS, 50 µg/mL hygromycin B, 15 µg/mL blasticidin, and maintained in a humidified incubator at 37 °C with 5% CO2. Prior to plating, 24-well tissue culture plates (Thermo Fisher Scientific) were coated with poly-d-lysine. Seeding media was prepared using phenol red-free DMEM with 10% FBS with no selection agents. To the seeding media, […] of doxycycline was added to induce expression of OATP1B1.
OATP1B1 overexpressing cells and vector control cells were plated in 24-well tissue culture plates at a volume of 0.5 mL (containing 2 × 10^6 cells/mL) per well. Plates were returned to an incubator at 37 °C and transport assays were conducted 24 h later. Transport activity was measured using EβG, a prototypical substrate of OATP1B1. Experiments were conducted using phenol red- and serum-free DMEM. Intracellular levels of total radioactivity originating from EβG were assessed by liquid scintillation counting. The resulting counts were normalized to total protein levels as determined by a Pierce protein assay. The influence of gilteritinib, itraconazole, keto-itraconazole, or hydroxy-itraconazole on OATP1B1-mediated transport was assessed following a 15 min pre-incubation at various concentrations of test inhibitors followed by co-incubation of test inhibitors with EβG. Inhibition of transport activity by gilteritinib was determined by comparing the accumulation of EβG in the presence of gilteritinib, itraconazole, keto-itraconazole, or hydroxy-itraconazole to that of EβG in the presence of only the control vehicle, DMSO. The final concentration of DMSO in media was less than 0.2% in all in vitro experiments.

Data set [2] deals with CDCA-24G, an endogenous biomarker of OATP1B transporter function. Put plainly: Plasma CDCA-24G (endogenous biomarker of OATP1B function) in mice treated with itraconazole. The format is in vivo.
The test system of data set [3] is OATP1B biomarkers coproporphyrin (CP) I and CPIII. On the set-up: method as in PMID 34049965, PMID 29777022. To be noted: itraconazole 100 mg to human subjects; cited from earlier work.

In the case of `CCC(C)n1ncn(-c2ccc(N3CCN(c4ccc(OCC5COC(Cn6cncn6)(c6ccc(Cl)cc6Cl)O5)cc4)CC3)cc2)c1=O` (stereo not shown) [Itraconazole], in data set [1], the pIC50 is 4.56. The “CDCA-24G AUC0–4h” value in data set [2] (100 mg/kg) is 5.10 (±1.60) ng ∗ h/mL; in data set [2] (CYP3A(−/−) female mice, itraconazole 100 mg/kg), 3.30 (±1.00) ng ∗ h/mL. Also, the “CDCA-24G AUC Fold Increase” value amounted to 1 fold in data set [2] (CYP3A(−/−) mice, itraconazole 100 mg/kg, vs. CYP3A(−/−) untreated); 0.9 fold in data set [2] (CYP3A(−/−) mice, itraconazole 100 mg/kg, vs. WT Alone); 1.5 fold in data set [2] (Wild-type FVB mice, itraconazole 100 mg/kg, vs. CYP3A(−/−) + Itraconazole); 1.3 fold in data set [2] (Wild-type FVB mice, itraconazole 100 mg/kg, vs. WT untreated). Further, the “Effect on circulating levels of coproporphyrin (CP) I and CPIII” value in data set [3] was “not associated with changes”.

Turning to `CC(O)C(C)n1ncn(-c2ccc(N3CCN(c4ccc(OCC5COC(Cn6cncn6)(c6ccc(Cl)cc6Cl)O5)cc4)CC3)cc2)c1=O` (stereo not shown) [hydroxy-itraconazole], in data set [1], the pIC50 was 5.53.

For the compound `CC(=O)C(C)n1ncn(-c2ccc(N3CCN(c4ccc(OC[C@H]5CO[C@](Cn6cncn6)(c6ccc(Cl)cc6Cl)O5)cc4)CC3)cc2)c1=O` (stereo partly shown) [keto-itraconazole], in data set [1], the pIC50 was 5.12.
